From the METLIN SMRT retention time set (Domingo-Almenara et al. 2019)

Assay: gradient 5% acetonitrile 3 min, to 50% in 2 min, to 85% in 15 min, held 3 min, 100 µL/min
Conditions: column: Zorbax Extend-C18 2.1 x 50 mm; eluents: water / acetonitrile, 0.1% formic acid
In short: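 In both positive and negative ionization mode, a quadrupole time-of-flight mass spectrometer coupled to HPLC analyzed pure standards run in mixtures of ~100 molecules. The Zorbax Extend-C18 column (2.1 × 50 mm, 1.8 μm) was operated at 100 μL/min with water and acetonitrile, each containing 0.1% formic acid. The dead volume was 40 μL and the dwell volume 900 μL. Retention time came from adduct peaks that were computationally picked and individually inspected by hand.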
Work on `CC(C)NC(=O)Cn1c2ccccc2n2c(=O)cc(-c3ccc(F)cc3)nc12` yielded an RP-LC retention time of 702 s.
Work on `O=C(Nc1ccccc1)N1CC(c2nc(CCOCC3CCCC3)no2)C1` yielded an RP-LC retention time of 944 s.
In the case of `O=C(NCCC1=CCCCC1)c1cccc(CN2C(=O)C3CCCN3C(=O)c3ccccc32)c1` (stereo not drawn), the RP-LC retention time is reported as 890 s.
`Cc1ccc(C)c(C(=O)N2CCCC(COc3ccc(C(=O)NC4CC4)cc3)C2)c1` (stereo not drawn) showed an RP-LC retention time of 849 s.
`CCOc1ccc(-n2nc(-c3nc(-c4ccc5c(c4)OCO5)no3)c3ccccc3c2=O)cc1` gave an RP-LC retention time of 1290 s.
In the case of `Cc1ccc(C)c(S(=O)(=O)NCCn2c(C)cnc2C2CCC2)c1`, the RP-LC retention time is reported as 656 s.
`COc1ccc2ncc(S(=O)(=O)c3ccc(C)c(C)c3)c(N3CCN(C)CC3)c2c1` gave an RP-LC retention time of 654 s.
Work on `CCNC(=O)c1n[nH]c2c1CC(C(C)(C)C)CC2` (stereo not drawn) yielded an RP-LC retention time of 840 s.
`CC1CCCCN1S(=O)(=O)c1ccc2nc(N3CCN(c4ccccc4)CC3)ccc2c1` (stereo not drawn) gave an RP-LC retention time of 1100 s.
Compound `CCCCC(=O)Nc1nc(-c2ccc3c(c2)N(C)C(=O)CO3)cs1` has an RP-LC retention time of 900 s.
`CCCn1cnc2cc(-c3noc(C4CC(=O)N(c5ccccc5)C4)n3)ccc21` (stereo not drawn) showed an RP-LC retention time of 711 s.
For `CC1CCN(C(=O)C2=NN(Cc3nc(C4CC4)no3)c3ccccc3S2(=O)=O)CC1`, the RP-LC retention time was 904 s.
`COc1ccc(-c2nc3cc(C)ccn3c2NC(=O)C(C)(C)Oc2ccc(Cl)cc2)cc1` showed an RP-LC retention time of 828 s.
Work on `CC(C)c1cccc(NC(=O)c2nc(N3CCSCC3)c3cnn(C)c3n2)c1` yielded an RP-LC retention time of 1040 s.
With `COc1cccc(-n2ccc(=O)c(-c3nc(-c4ccc(OC)c(OC)c4)no3)n2)c1` the RP-LC retention time was 817 s.
`COc1ccc2c3c([nH]c2c1)[C@H](C=C(C)C)N1C(=O)[C@@H]2CCCN2C(=O)[C@@H]1C3` showed an RP-LC retention time of 871 s.
`CN1CCN(C(=O)C2CCN(c3nc4ccc(-c5cccs5)nc4s3)CC2)CC1` showed an RP-LC retention time of 646 s.
`CC(C)CNC(=O)Cc1nnc(-c2ccccc2)o1` showed an RP-LC retention time of 718 s.
`O=C(CCc1nnc(C(=O)Nc2ccccc2)s1)NCCc1c[nH]c2ccc(Cl)cc12` gave an RP-LC retention time of 921 s.
`COc1cc(Cl)ccc1-c1nc(C2CC(=O)N(c3ccc(C)cc3)C2)no1` (stereo not drawn) showed an RP-LC retention time of 1070 s.
Work on `O=C(Nc1cccc(Cl)c1)N1CCC(n2c(C(F)(F)F)nc3cccnc32)CC1` yielded an RP-LC retention time of 961 s.
`Cc1ccc(-c2ncc(C(=O)Nc3cc(F)cc(F)c3)c(-c3ccncc3)n2)cc1` showed an RP-LC retention time of 1060 s.
Compound `CCOC(=O)c1sc(NC(=O)Cn2nc3c(cc2=O)CCCC3)nc1C` has an RP-LC retention time of 764 s.
For `COc1ccc(C(O)CN2CCN(c3ccccc3)CC2)cc1OC` (stereo not drawn), the RP-LC retention time was 607 s.
With `COc1ccc(CCO[C@@H]2CCCC[C@H]2N2CC[C@@H](O)C2)cc1OC` the RP-LC retention time was 684 s.
Compound `CCN1CCN(c2cc(C(=O)O)c3cc(NS(=O)(=O)c4ccccc4C)ccc3n2)CC1` has an RP-LC retention time of 618 s.
`CCOCC(=O)N1CC(c2nc(-c3ccc(F)cc3)no2)C2(CCOCC2)C1` (stereo not drawn) showed an RP-LC retention time of 771 s.
With `COc1ccc(OC)c(NC(=O)N2CCC3(CC2)N=C(c2ccc(F)cc2)C(=O)N3)c1` the RP-LC retention time was 838 s.
Compound `CCc1nccn1Cc1noc(-c2ccccc2F)n1` has an RP-LC retention time of 613 s.
`CN1CCN(CCC(=O)N2CCC(c3c[nH]c4ccccc34)(c3c[nH]c4ccccc34)CC2)CC1` showed an RP-LC retention time of 625 s.
In the case of `Cc1sc(NC(=O)Cn2c(=O)oc3ccccc32)nc1-c1ccc(Cl)cc1`, the RP-LC retention time is reported as 1060 s.
In the case of `CC(C)CCNC(=O)N1CCC(OC2CCN(Cc3ccccc3)CC2)CC1`, the RP-LC retention time is reported as 641 s.
Compound `CCc1nc2c(c(=O)n1CC(=O)NC(C)(C)C)CN(Cc1ccccc1)CC2` has an RP-LC retention time of 605 s.
With `Cc1csc(-c2cc(S(=O)(=O)NCc3ccc(Br)cc3)c(C)s2)n1` the RP-LC retention time was 1050 s.
`O=C(Cn1ccc2ccccc21)Nc1nccs1` gave an RP-LC retention time of 748 s.
`CC(C)(C)C(=O)N1CCC(F)(c2nc(-c3ccncc3)no2)CC1` showed an RP-LC retention time of 802 s.
Work on `COc1ccc(S(=O)(=O)CCc2noc(C(=O)N3CCC4(CC3)OCCO4)n2)cc1` yielded an RP-LC retention time of 763 s.
For `CC1CCCCN1CCCNC(=O)CN1C(=O)c2ccccc2Sc2ncccc21` (stereo not drawn), the RP-LC retention time was 661 s.
`CC1(C)O[C@@H]2C[C@H]3[C@@H]4CCC5=CC(=O)C=C[C@]5(C)[C@H]4[C@@H](O)C[C@]3(C)[C@]2(C(=O)CO)O1` gave an RP-LC retention time of 814 s.
Work on `COc1cc2ncnc(Nc3ccc(F)c(Cl)c3)c2cc1NC(=O)/C=C/CN1CCCCC1` yielded an RP-LC retention time of 704 s.
Compound `COCc1cc(=O)n(Cc2ccccc2C#N)c(N2CCCC2)n1` has an RP-LC retention time of 744 s.
Work on `Cc1ccc2nc(N3CCN(C)CC3)c(-c3noc(C)n3)cc2c1` yielded an RP-LC retention time of 645 s.
For `CCc1sc(NC(=O)c2cc(C)on2)nc1-c1ccccc1`, the RP-LC retention time was 1060 s.
